Measured values taken from patent US20090275099A1 (priority 2004, published 2009).
Read-outs that look alike come from different tables or passages of the source.

Experiments:
[1] = target: T1, mitochondrial F1F0-ATPase (Bos taurus, UniProt P13621+P32876); test: biochemical; parameters: species or system bovine; conditions: for IC50: read-out: KJ IC50 (hydr); for EC50: bovine SMPs
[2] = target: T1, mitochondrial F1F0-ATPase; test: biochemical; parameters: species or system bovine; conditions: for IC50: read-out: KJ IC50 (syn); for EC50: bovine SMPs
[3] = tested on: F1F0-ATPase, OSCP subunit; test: F1F0-ATPase activity in SMPs reconstituted in the presence or absence of the OSCP; format: biochemical, bovine; conditions: without OSCP, at IC50
Method: (§1) An additional OSCP binding assay was conducted. […] Benzodiazepine derivative compounds that bind the OSCP include, but are not limited to: […]

[4] = target: mitochondrial F1F0-ATPase (Homo sapiens, UniProt P48047); conditions: read-out: BMS IC50 (hydr); cited from earlier work
[5] = target: T2, F1F0-ATPase, OSCP subunit (UniProt P48047); test: F1F0-ATPase activity in SMPs reconstituted in the presence or absence of the OSCP; format: biochemical, bovine; parameters: rows headed: KJ IC50 reconst; not tied in print to the reconstitution assay; conditions: read-out: KJ IC50 reconst
T2 sequence (P48047 1-213): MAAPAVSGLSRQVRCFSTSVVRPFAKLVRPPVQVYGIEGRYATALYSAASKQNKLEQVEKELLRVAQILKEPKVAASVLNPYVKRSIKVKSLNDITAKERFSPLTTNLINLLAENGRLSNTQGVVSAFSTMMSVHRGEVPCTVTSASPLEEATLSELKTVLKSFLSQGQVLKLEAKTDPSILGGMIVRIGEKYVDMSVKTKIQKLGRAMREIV
Method: as §1

Ramos B cells = test: cell death of Ramos B cells, propidium iodide exclusion by flow cytometry, 24 h; format: cell-based, human; conditions: for EC50: 24 h
Ramos cells = test: early O2− (ROS) response, 1 h; format: cell-based, human; conditions: for EC50: 1 h, read-out: ROS EC50 (μM), Ramos cells
Method: (§2) To detect O2^−, cells are incubated with DHE (10 μM) for 30 min at 37° C. and are analyzed by flow cytometry to measure ethidium fluorescence. Flow analysis of mitochondrial transmembrane potential (ψm) is conducted by labeling cells with DiOC6(3) (20 nM) for 15 min at 37 degrees C. A positive control for disruption of ψm is established using carbonyl cyanide m-chlorophenylhydrazone (CCCP, 50 μM). Caspase activation assays are performed with FAM-VAD-fluoromethylketone. Processing of the substrate is evaluated by flow cytometry.
(§3) Since an early mitochondrial superoxide (O2^−) mediates apoptosis induced by Bz-423, the O2^− response of cells 1 h following incubation with drug was examined, as well as cell death at 24 h, as previously described (see, e.g., Blatt, N. B., et al., 2002 J Clin Invest 110, 1123-1132; incorporated herein by reference in its entirety).

Jurkat cells [6] = test: early O2− (ROS) response, 1 h; format: cell-based; conditions: for EC50: 1 h, read-out: ROS EC50 (μM), Jurkat cells; for % ROS+: Jurkat cells, 75 μM PK11195, with or without antioxidant pre-incubation
Method: as §2, §3

Jurkat cells [7] = test: cell death at 24 h; format: cell-based; conditions: for EC50: 24 h, read-out: Cell death EC50 (μM), Jurkat cells; for % Cell death: Jurkat cells, 75 μM PK11195, with or without antioxidant pre-incubation
Method: as §3

[8] = tested on: isolated rat liver mitochondria; test: ROS production in isolated mitochondria (DCF oxidation); conditions: aerobic conditions supporting state 3 respiration, slope versus control
Method: Male Long Evans rats are starved overnight and sacrificed by decapitation. Liver samples are homogenized in ice cold buffer A (250 mM sucrose, 10 mM Tris, 0.1 mM EGTA, pH 7.4), and nuclei and cellular debris are pelleted (10 min, 830 g, 4° C.). Mitochondria are collected by centrifugation (10 min, 15,000 g, 4° C.), and the supernatant is collected as the S15 fraction. The mitochondrial pellet is washed three times with buffer B (250 mM sucrose, 10 mM Tris, pH 7.4), and re-suspended in buffer B at 20-30 mg/mL. Mitochondria are diluted (0.5 mg/mL) in buffer C (200 mM sucrose, 10 mM Tris, pH 7.4, 1 mM KH2PO4, 10 μM EGTA, 2.5 μM rotenone, 5 mM succinate) containing 2′,7′-dichlorodihydrofluorescin diacetate (DCFH-DA, 1 μM). For state 3 measurements, ADP (2 mM) is included in the buffer, and prior to the addition of Bz-423, mitochondria are allowed to charge for 2 min. To induce state 4, oligomycin (10 μM) is added to buffer C. […] To detect effects on O2^− and delta ψm, mitochondria are incubated for 15 min at 37° C. in buffer C with vehicle, Bz-423, or CCCP containing DHE (5 μM) or DIOC6(3) (20 nM), and aliquots are removed for analysis by fluorescence microscopy.
O2^− production by Bz-423 may result from binding to a protein within mitochondria or a target in another compartment that signals mitochondria to generate ROS. […]

[9] = ATPase activity EC50 (μM), Hydrolysis
[10] = ATPase activity EC50 (μM), Synthesis

Row | Molecule | IC50 [1] | IC50 [2] | % activity without OSCP at IC50 [3] | IC50 [4] | IC50 [5] | further results
1 | O=S(=O)(c1ccc(O)cc1)N1Cc2ccccc2N(Cc2cnc[nH]2)C(CCc2ccccc2)C1 (centres unmarked) [4-(4-hydroxphenylsulfonyl)-1-(1H-imidazol-4-ylmethyl)-2-phenethyl-2,3,4,5-tetrahydro-1H-benzo[e][1,4]diazepine] | 750 nM | 20000 nM | 77% | 667 nM | 500 nM | 
2 | CN1C(=O)CN=C(c2ccccc2)c2cc(Cl)ccc21 [Dz, diazepam, reference compound] |  |  |  |  |  | EC50 [1, 9]: > 300 µM; EC50 [2, 10]: 210 µM; EC50 (Ramos B cells; Homo sapiens, Ramos, read-out: EC50 (μM), cell death): > 80 µM
3 | CN1C(=O)C(Cc2ccc3ccccc3c2)CN(c2ccc(O)cc2)c2cc(Cl)ccc21 (centres unmarked) [GD-423] |  |  |  |  |  | cellular death of Ramos cells (Ramos B cells; 24 hours, 2% FBS, FIG. 8): causes cell death; response of Ramos cells at 1 hour (Ramos cells; 1 hour, 2% FBS, DHE, FIG. 9): causes cell death
4 | CN1C(=O)CN=C(c2ccc(Cl)cc2)c2cc(Cl)ccc21 [Compound 4-Cl-Dz, 4-chlorodiazepam] |  |  |  |  |  | inhibition of mitochondrial ATPase activity ([1]; 80 μM): do not significantly inhibit mitochondrial ATPase activity; EC50 ([1]; read-out: ATPase activity EC50 (μM), Hydrolysis): > 300 µM; EC50 ([2]; read-out: ATPase activity EC50 (μM), Synthesis): 210 µM; EC50 (Ramos B cells; read-out: Cell death EC50 (μM), Ramos cells): 130 µM; EC50 (Ramos cells): 180 µM; EC50 (Jurkat cells [6]): 230 µM; EC50 (Jurkat cells [7]): > 300 µM
5 | vitamin E |  |  |  |  |  | % ROS+ (Jurkat cells [6]): 33.9 ± 2.6%; % Cell death (Jurkat cells [7]): 55.9 ± 0.5%
6 | N#CN/C(=N/c1ccc(Cl)cc1Cl)NC(Cn1ccnc1)c1ccc(Cl)cc1Cl (centres unmarked) [(1-(2,4-dichlorophenyl)-2-(1H-imidazol-1-yl)ethyl)-3-(2,4-dichlorophenyl)-2-cyanoguanidine] | > 3000 nM | 6000 nM |  | 600 nM | 4000 nM | 
7 | N#CN/C(=N\C(Cn1ccnc1)c1cc(C(F)(F)F)ccc1C(F)(F)F)Nc1ccc(Cl)cc1Cl (centres unmarked) [(1-(2,5-bis(trifluoromethyl)phenyl)-2-(1H-imidazol-1-yl)ethyl)-3-(2,4-dichlorophenyl)-2-cyanoguanidine] | 100 nM | 3750 nM |  | 710 nM | 250 nM | 
8 | O=S(=O)(c1ccc(F)cc1)N1Cc2ccccc2N(Cc2c[nH]cn2)C(CCc2ccccc2)C1 (centres unmarked) [4-(4-fluorophenylsulfonyl)1-(1H-imidazol-4-ylmethyl)-2-phenethyl-2,3,4,5-tetrahydro-1H-benzo[e][1,4]diazepine] | 150 nM | 7500 nM | 79% | 221 nM | 100 nM | 
9 | O=S(=O)(c1ccc(Cl)c(Cl)c1)N1Cc2ccccc2N(Cc2c[nH]cn2)C(CCc2ccccc2)C1 (centres unmarked) [4-(3,4-dichlorophenylsulfonyl)-1-(1H-imidazol-4-ylmethyl)-2-phenethyl-2,3,4,5-tetrahydro-1H-benzo[e][1,4]diazepine] | 60 nM | 5000 nM | 76% | 22 nM | 50 nM | 
10 | O=S(=O)(c1ccc(C(F)(F)F)cc1)N1Cc2ccccc2N(Cc2c[nH]cn2)C(CCc2ccccc2)C1 (centres unmarked) [4-(4-trifluoromethylphenylsulfonyl)-1-(1H-imidazol-4-ylmethyl)-2-phenethyl-2,3,4,5-tetrahydro-1H-benzo[e][1,4]diazepine] | 50 nM | 6000 nM | 80% | 100 nM | 25 nM | 
11 | O=S(=O)(N1Cc2ccccc2N(Cc2c[nH]cn2)C(CCc2ccccc2)C1)C(F)(F)F (centres unmarked) [4-trifluoromethylsulfonyl-1-(1H-imidazol-4-ylmethyl)-2-phenethyl-2,3,4,5-tetrahydro-1H-benzo[e][1,4]diazepine] | 50 nM | 3750 nM | 78% | 77 nM | 50 nM | 
12 | N#Cc1cccc(C(=O)/N=C(\Nc2ccc(Cl)cc2)NC(Cn2ccnc2)c2ccc(Cl)cc2Cl)c1 (racemic) [(+/−)-(1-(2,4-dichlorophenyl)-2-(1H-imidazol-1-yl)ethyl)-3-(4-chlorophenyl)-2-(3-cyanobenzoyl)guanidine] | 100 nM | 1500 nM |  | 33 nM | 200 nM | 
13 | CC(C)(C)c1ccc(S(=O)(=O)N2Cc3ccccc3N(Cc3c[nH]cn3)C(CCc3ccccc3)C2)cc1 (centres unmarked) [4-(4-tertbutylphenylsulfonyl)-1-(1H-imidazol-4-ylmethyl)-2-phenethyl-2,3,4,5-tetrahydro-1H-benzo[e][1,4]diazepine] | 25 nM | 5000 nM | 77% | 8 nM | 20 nM | 
14 | O=C(O)c1ccc(-c2c3nc(c(-c4ccc(C(=O)O)cc4)c4ccc([nH]4)c(-c4ccc(C(=O)O)cc4)c4nc(c(-c5ccc(C(=O)O)cc5)c5ccc2[nH]5)C=C4)C=C3)cc1.[Mn+3] [MnTBAP, Manganese(III) meso-tetrakis(4-benzoic acid)porphyrin] |  |  |  |  |  | % ROS+ (Jurkat cells [6]): 39.7 ± 2.8%; % Cell death (Jurkat cells [7]): 68.9 ± 1.0%
15 | S=C(Nc1ccc(Cl)cc1)OC(Cn1ccnc1)c1ccc(Cl)cc1Cl (centres unmarked) [(4-chlorophenyl)-thiocarbamic acid O-[1-(2,4-dichlorophenyl)-2-imidazol-1-yl-ethyl] ester] | 750 nM | 12500 nM | 70% | 430 nM | 300 nM | 
16 | O=C1CN=C(c2ccccc2Cl)c2cc([N+](=O)[O-])ccc2N1 [Cz, clonazepam] |  |  |  |  |  | EC50 [1, 9]: 240 µM; EC50 [2, 10]: 120 µM; EC50 (Ramos B cells; Homo sapiens, Ramos, read-out: Cell death EC50 (μM), Ramos cells): > 300 µM; EC50 (Ramos cells; Homo sapiens, Ramos): > 300 µM; EC50 (Jurkat cells [6]; Homo sapiens, Jurkat): > 300 µM; EC50 (Jurkat cells [7]; Homo sapiens, Jurkat): > 300 µM
17 | Cc1[nH]cnc1CN1c2ccccc2CN(S(=O)(=O)c2ccc(C(C)(C)C)cc2)CC1CCc1ccccc1 (centres unmarked) [4-(4-tert-butylphenylsulfonyl)-1-(5-methyl-1H-imidazol-4-ylmethyl)-2-phenethyl-2,3,4,5-tetrahydro-1H-benzo[e][1,4]diazepine] | 55 nM | 15000 nM | 80% | 77 nM | 5 nM | 
18 | antimycin A |  |  |  |  |  | increase of the rate of ROS production [8]: nearly two-fold
19 | COc1ccc(S(=O)(=O)N2Cc3ccccc3N(Cc3c[nH]cn3)C(CCc3ccccc3)C2)cc1 (centres unmarked) [4-(4-methoxyphenylsulfonyl)-1-(1H-imidazol-4-ylmethyl)-2-phenethyl-2,3,4,5-tetrahydrol-1H-benzo[e][1,4]diazepine] | 75 nM | 7500 nM | 81% | 77 nM | 50 nM | 
